A short description of this data set: Solubility in ethanol, DMSO and ethanol-Tween 80. As to conditions: organic solvent or mixture. The data set is classed as physicochemical. The procedure: After solution in ethanol or DMSO, or chemically similar solvents, NVX-207 or a related compound may be formulated with co-solvents such as Cremophor EL® and/or Tween® 80, in a similar manner described for taxanes. For example, the formulation approach for paclitaxel (TAXOL®; Bristol-Myers Squibb) was to use 50% Cremophor EL® and 50% ethanol. The pharmaceutical formulation of paclitaxel contains 30 mg paclitaxel dissolved in 5 ml of this (1:1, v/v) mixture. These and equivalent formulations allow for the application of NVX-207 in sufficiently high concentrations not only for topical, but also for intralesional and systemic (intravenous infusion) use. Solubility of NVX-207 in ethanol was determined to be at least 300 mg/ml and reached 250 mg/ml in DMSO. […] The solubility of NVX-207 in ethanol-Tween® 80 was evaluated. Two-hundred mg of NVX-207 was dissolved in 1 ml ethanol. […] Then an equal volume of Tween® 80 was added, to achieve a stock solution of 100 mg/ml of NVX-207. The stock solution was clear and yellow. Each stock solution was diluted first 1:1 (50 mg/ml NVX-207), then 1:5 (20 mg/ml NVX-207) and finally 1:10 (10 mg/ml NVX-207) with water. […] NVX-207 therefore has, apart from its higher activity, significant advantages over betulinic acid, that include higher activity, better solubility in pharmaceutically suitable solvents, and better handling.

Broadly, the solubility is how much of the substance goes into solution per volume.

The structures appear in SMILES notation. ≈ marks a conversion by molar mass, not a printed value.

Take `C=C(C)[C@@H]1CC[C@]2(C(=O)O)CC[C@]3(C)[C@H](CC[C@@H]4[C@@]5(C)CC[C@H](O)C(C)(C)[C@@H]5CC[C@]43C)[C@@H]12` [betulinic acid, reference compound]: the solubility runs as follows: (Solubility in DMSO) 10000 µg/mL (≈ 21.9 mM); (Solubility in ethanol) less than 1000 µg/mL.

For the origin of these results see US20150306110A1, “COMPOSITIONS AND METHODS FOR TREATMENT OF INFLAMMATION AND HYPERKERATOTIC LESIONS” (Novelix Pharmaceuticals, Inc., priority 2008, published 2015).
